# Experimental data from article PMC9863691, “A Novel Ferroptosis Inhibitor UAMC-3203, a Potential Treatment for Corneal Epithelial Wound” (Pharmaceutics, 2022).
# Columns and labels:
# solubility in buffers = format: physicochemical; settings: for water solubility: room temperature, 72 h
# Procedure: Compound UAMC-3203 was synthetized in the laboratory of Medicinal Chemistry at the University of Antwerp, as reported by Devisscher L. et al.. Solubility of UAMC-3203 was determined in 0.1 M citrate buffer (pH 5 and pH 6) and phosphate-buffered saline (PBS, Gibco, Life Technologies Limited, Paisley, UK) at pH 7.4. Excess of UAMC-3203 (10–20 mg) was added to 500 µL of buffer in glass vials that were kept at room temperature and mixed (150 rpm) for 72 h. The pH of the solutions was measured daily with calibrated pH meter (Orion Research Incorporated, Boston, MA, USA) and adjusted if needed (with 0.1 N sodium hydroxide or 0.1 N hydrochloric acid). After 72 h, samples were withdrawn and centrifuged at 13,000 rpm for 15 min. The supernatant was collected and analyzed by high-pressure liquid chromatography (HPLC) for UAMC-3203 concentration.
# (§1) The quantitation of UAMC-3203 was performed with […] reverse-phase HPLC system consisting of a degasser (G1379B), multi-sampler (G1367D), a binary pump (G1312B), a thermostat (G1316B), and a diode array detector (DAD) detector (G1315C). A Zorbax Eclipse XDB-C18 (4.6 × 50 mm, 4 μm; Agilent Technologies, Santa Clara, CA, USA) column was used for the analyses. The mobile phase was composed of 0.1% […] (Sigma-Aldrich, St. Louis, MO, USA) in Milli-Q-H2O and 0.1% […] in acetonitrile (LC-MS Chromasolv, Honeywell, Riedel-de Haen, Seelze, Germany) (65:35% v/v). Isocratic analysis was performed at a flow rate of 1 mL/min. The injection volume was 5 μL, and the detection wavelength was 240 nm.
# [1] = chemical stability of 100 µM solution in PBS; format: physicochemical
# Procedure: The chemical stability of 100 µM UAMC-3203 in PBS (pH 7.4) was investigated for 30 days as described previously. Briefly, four batches with triplicates were stored at 4, 25, or 37 °C with light protection and at 25 °C without light protection. Separate solutions were used for pH-dependent stability studies. Samples were collected, and pH was measured at various times. The samples were stored at −20 °C until HPLC analysis.
# as §1
# [2] = tested on: human corneal epithelial (HCE) cells; assay: in vitro scratch assay; format: cell-based; settings: for HCE cell migration (%): 72 h, negative control 55.6 ± 17.6%
# Procedure: In vitro scratch assay was performed in confluent HCE monolayer as previously reported. HCE cells were seeded on 24-well plates at 1 × 10^5 cells/well incubated for 24 h. The monolayer was scratched with sterile 10 µL pipette tips perpendicular to the lines to create a consistent cell-free area. The cells were washed three times with pre-warmed PBS to remove detached cells. The cells were then exposed to UAMC-3203 at different concentrations (10 nM, 1 µM, 10 µM, 50 µM) in serum-free DMEM (Dulbecco’s Modified Eagle Medium): F12 media that was supplemented with 1% penicillin-streptomycin solution […] penicillin, 0.1 mg/mL streptomycin (Corning, Ref 30-002-CI, Mediatech Inc., Discovery Boulevard, Manassas, VA, USA). Serum-free medium was used as a negative control, and 1.5% fetal bovine serum (FBS 10270, Gibco by Life Technologies, Carlsbad, CA, USA) supplemented medium was used as a positive control. The well plates were then transferred to Cell-IQ (CM Technologies Limited, Tampere, Finland) and maintained in standard tissue culture conditions (37 °C, 5% CO2-atmosphere).
# Images were taken immediately after scratch (less than 1 h) and at 6, 12, 24, 30, 42, 48, and 72 h and analyzed by Cell-IQ analyzer. Three independent experiments were performed, using two to three wells for each stimulating condition. Cell migration (A%) was calculated as follows:(1) A%=A0−At/A0×100 where A0 and At represent the wound areas at 0 h and each timepoint, respectively.
# HCE cells = assay: in vitro cytotoxicity, MTT assay; format: cell-based, human; settings: 3 h exposure
# Procedure: The cytotoxicity of UAMC-3203 was assessed by MTT assay. The HCE cells were seeded on a 96-well plate at a density of 100,000 cells/well in 200 µL of supplemented growth medium. The next day the cells were washed with PBS (pH 7.2). The cells were then exposed to UAMC-3203 at concentrations 10 nM, 1 µM, 10 µM, and 50 µM for 3 h. For control, cells not exposed to UAMC-3203 cultured in a serum-free medium were used. The cells were then washed twice with PBS and incubated 2 h with 100 µL of 10% of thiazolyl blue tetrazolium bromide (MTT, Sigma-Aldrich, St. Louis, MO, USA) in a serum-free medium. An amount of 100 µL of 20% (w/v) sodium dodecyl sulfate (SDS), N-dimethylformamide (DMF) lysis buffer was added to each well and incubated overnight. The following day, cell viability was evaluated by measuring absorbance at 570 nm with a Victor^2 multilabel plate reader (PerkinElmer, Wallac, St. Paul, MN, USA). The cell viability % was calculated as below:(2) % of cell viability=Abs exposed cells−Abs blank/Abs non−exposed cells−Abs blank×100 where Abs exposed cells = absorbance of cells exposed to UAMC-3203; Abs blank = absorbance of well plates without cells; and Abs non–exposed cells = Absorbance of cells exposed to serum-free medium (i.e., control).
# ferroptosis = tested on: ferroptosis; parameters: method as in PMID 30354101; settings: read-out: in vitro potency IC50 (ferroptosis); cited from earlier work
# [3] = pH 7.4
# [4] = tested on: mouse model of (multi)organ dysfunction and death; parameters: method as in PMID 35210435; settings: cited from earlier work
# [5] = human microsome; cited from earlier work
smiles,measurement,setting,value
O=S(=O)(NCCN1CCNCC1)c1ccc(NC2CCCCC2)c(NCc2ccccc2)c1 [UAMC-3203],solubility at pH 6.0 and 7.4 relative to pH 5.0,solubility in buffers,about 3.5 times
same,water solubility,"solubility in buffers; pH 5.0, 0.1 M citrate buffer",36.7 ± 5.7 µM
same,water solubility,"solubility in buffers; pH 6.0, 0.1 M citrate buffer",127.9 ± 16.1 µM
same,water solubility,"solubility in buffers; pH 7.4, PBS",127.3 ± 17.3 µM
same,% of initial concentration at day 30,"[1]; 100 µM in PBS pH 7.4, various temperatures and light exposure conditions",about 90%
same,pH of the solution during 30 days,"[1]; starting pH 7.4, all conditions",7.5–7.6
same,HCE cell migration (%),[2]; 10 nM,84.9 ± 12.5%
same,HCE cell migration (%),[2]; 1 µM,76.6 ± 15.2%
same,cell migration compared to negative control,[2]; 10 µM,no notable difference at any time point
same,change of scratch area,[2]; 50 µM,did not cause any changes in the scratch area
same,optimal concentration for corneal epithelial wound healing effect in vitro,[2]; in vitro,10 nM
same,toxicity to HCE cells,HCE cells; 10 nM,did not cause any toxicity
same,toxicity to HCE cells,HCE cells; 1 µM,did not cause any toxicity
same,HCE cell viability,HCE cells; 10 µM,75 ± 6.7%
same,HCE cell viability,HCE cells; 50 µM,39.2 ± 5.6%
same,IC50,ferroptosis,10 nM
same,Log D7.4,[3],0.95
same,efficacy compared to Fer-1,[4],more effective
same,t1/2 in human microsome,[5],20 h
